Read-outs that look alike come from different tables or passages of the source. Each block holds one molecule with its values, some of them ahead of it.
Experiments:
Type in all cases: cell-based, human
[1] = tested on: Bcl-xL; assay: Western blot of Bcl-xL phosphorylation; settings: HT29 cells, 3, 6 and 24 h
Description: Western blotting. Floating and adherent cells were harvested and pellets were resuspended in RIPA buffer (50 mM Tris/HCl 7.4, 250 mM NaCl, 0,5% Igepal CA630, 5 mM EDTA, 1 mM PMSF, 10 μg/ml leupeptin, 50 mM NaF, 0.1 mM Na3VO4) or Deoxycholate buffer (10 mM phosphate buffer 7.4, […] NaCl, 0.5% Deoxycholate, 1% Igepal, 0.1% SDS, 1 mM PMSF). Protein concentration was determined with BCA Protein Assay Kit (Pierce) for RIPA extracts or Bradford assay (BioRad) for Deoxycholate extracts. Total protein (20-30 μg/lane) were separated by SDS-PAGE, transferred to PVDF membranes (Gellman), and probed with antibodies against Bcl-xL (Transduction); Bax (Santa Cruz); JNK (Santa Cruz); phospho-JNK (Cell Signaling); pRb (Pharmingen); pRb-phospho Ser780 (Cell Signalling); p130 (Santa Cruz); p107 (Santa Cruz); Cdk2 (Santa Cruz); p27^Kip1 (Santa Cruz); p21^Cip1 (Santa Cruz); actin (Sigma); or tubulin (ICN) and developed with ECL system (AmershamPharmacia biotech)
FIG. 6. (A) JNK is activated after N13-13-10C treatment. HT29 cells were treated for 1, 3, 6 and 24 h with N13-13-10C (35 μM), harvested and immunoblotted to assess activation of SAP/JNK MAP kinase. Western blot was first probed with the JNK-phosphor specific antibody, was stripped and reprobed with the pan-JNK antibody and actin to normalize total protein level. […]

[2] = tested on: T98 g cells; assay: Cell cycle DNA analysis in synchronized cells; settings: for Cells retained in G1: 19 h after serum re-addition, 100 μM
Description: Experimentally this finding was substantiated analysing the compounds in a cellular model with synchronized cells. T98 g cells were arrested in G1 phase (82%) by serum starvation in MCDB 105 medium after 72 h. Upon 10% serum re-addition, cells were allowed to re-enter into the cell cycle. More than 50% of the cells were in the S-phase, and only 20% remained in G1 after 19 h of FCS introduction. Addition of N10-13-10C or N13-13-10C to the cultures at the moment of serum addition restrained S-phase entry (FIG. 7. A). Around 40% of the cells were retained in G1. In conclusions both N10-13-10C and N13-13-10C were able to induce a G1 arrest either in asynchronous or in synchronized cell cultures, as determined by cell cycle DNA analysis. In comparison, Olomucine which is a cdk2 inhibitor, retained 80% of the cells in G1. The topoisomerase II inhibitor etoposide treated cells were arrested in S phase of the cell cycle (85% of the cell population).
DNA analysis. Floating and adherent cells treated with the compounds were collected by trypsinization and washed twice with PBS. The cells were permeabilized overnight at −20° C. with ice-cold ethanol 70%. The cells were washed in PBS, adjusted at 0.5×10^6 cells/ml and incubated with 20 μg/ml Propidium Iodide and 2 μl/ml RNase DNase-free for 30 min at 30° C. Cells were maintained overnight at 4° C. and then analysed by flow cytometry. Flow cytometric experiments were carried out using an Epics XL flow cytometer (Coulter Corporation, Hialeah, Fla.). The instrumet was set up with the standard configuration: excitation of the sample was done using an standard 488 nm air-cooled argon-ion laser at 15 mW power. Forward scatter (FSC), side scatter (SSC) and red (620 nm) fluorescence for PI were adquired. Optical alignement was based on optimized signal from […] fluorescent beads (Immunocheck, Epics Division). Time was used as a control of the stability of the instrument. Red fluorescence was projected on a 1024 monoparametrical histogram. Aggregates were excluded gating single cells by their area vs. peak fluorescence signal. DNA analysis (Ploidy analysis) on single fluorescence histograms was done using Multicycle software (Phoenix Flow Systems, San Diego, Calif.).
(§1) FIG. 7. […] (A) T98 g cells were synchronized and reinitiated for 19 h with FCS alone or in combination with N10-13-10C (100 μM), N13-13-10C (100 μM), Olomucine (100 μM), etoposide (5 μM) or Taxol (30 nM). Cell cycle profile was assessed by propidium iodide DNA staining and analyzed by flow cytometry. The fraction of cells with G1, S, G2/M DNA content are shown as % of total cell population. (B. and C.) Synchronized T98 g cells were reinitiated with FCS alone or in combination with serial dilutions of N4-13-10C, N5-13-10C, N10-13-10C, N13-13-10C, Olomucine or etoposide for 19 h and labeled with BrdU during the last 2 h. BrdU incorporation was assessed by ELISA using anti-BrdU antibodies. An arbitrary value of 100% was assigned to the densiometric rate of DNA synthesis by untreated cultures and all other values are depicted relative to that reference. The values are means of three (n=3) replicates.

[3] = tested on: T98g glioblastoma cells; assay: BrdU incorporation assay (DNA synthesis); settings: synchronized T98 g, 17 h + 2 h BrdU, read-out: IC50 BrdU incorporation (DNA synthesis inhibition)
Description: To confirm the G1 arrest of the cell cycle, we analyzed the DNA synthesis by an BrdU incorporation assay. Serial dilutions of the compounds N4-13-10C, N5-13-10C, N10-13-10C, N13-13-10C, etoposide or olomucine were assayed on synchronized T98 g cells as described in FIG. 7. A. Arrested cells were induced to cell cycle re-entry by re-addition of serum alone or with test compounds for 17 h, followed by 2 h in combination with 10 μM BrdU.
BrdU assay. T98g glioblastoma cells at 5000 cells/well in microtiter plates were arrested in G1-phase for 72 h by serum deprivation in MCDB 105 medium. By serum (10%) readdition, cells were treated with serial dilutions of the compounds for 17 h, and followed in combination 10 μM BrdU for […]. BrdU incorporation, i.e. DNA synthesis, was quantified with Cell Proliferation ELISA system, vs. 2 (AmershamPharmacia biotech) as described by the manufacturer.
as §1

Structure (SMILES): CC(=O)O[C@H]1C(=O)[C@@]2(C)[C@H]([C@H](OC(=O)c3ccccc3)[C@]3(O)C[C@H](OC(=O)[C@H](O)[C@@H](NC(=O)c4ccccc4)c4ccccc4)C(C)=C1C3(C)C)[C@]1(OC(C)=O)CO[C@@H]1C[C@@H]2O [Taxol, reference compound]
Bcl-xL phosphorylation (slower migrating band) [1]: phosphorylated bcl-xL
Effect on cell cycle profile ([2]; 19 h of treatment, Taxol 30 nM): does not effect cell cycle profile

IC50 ([3]; Homo sapiens, T98G): 200 µM
Structure (SMILES): COc1cc([C@@H]2c3cc4c(cc3[C@@H](O[C@@H]3O[C@@H]5CO[C@@H](C)O[C@H]5[C@H](O)[C@H]3O)[C@H]3COC(=O)[C@H]23)OCO4)cc(OC)c1O [etoposide, reference compound]
Cells arrested in S phase ([2]; 19 h, etoposide 5 μM): 85%

IC50 [3]: 50 µM
Structure (SMILES): Cn1cnc2c(NCc3ccccc3)nc(NCCO)nc21 [Olomucine]
Cells retained in G1 [2]: 80%
Cells retained in G1 ([2]; listed as olomucine): 82%
